Assay results from patent publication US20260262643A1, “HERBICIDAL BENZOXAZINES” (FMC CORPORATION, priority 2022, published 2026).

Key:
barnyardgrass [1] = assay: Test C preemergence; assay type: in vivo, Echinochloa crusgalli; settings: preemergence, 0 to 100 scale (0 no effect, 100 complete control)
Outline: (§1)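 Test material, in non-phytotoxic solvent with surfactant, was sprayed on the soil directly after seeding (preemergence) or on young plants of 2–10 cm with one to two leaves (postemergence). Greenhouse, 10 days; 0–100 visual control scale.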

blackgrass [2] = assay: Test C preemergence; assay type: in vivo, Alopecurus myosuroides; settings: preemergence, 0 to 100 scale (0 no effect, 100 complete control)
Outline: as §1

corn [3] = assay: Test C preemergence; assay type: in vivo, Zea mays; settings: 500 g ai/ha, preemergence; 0 to 100 scale (0 no effect, 100 complete control)
Outline: as §1

green foxtail [4] = assay: Test C preemergence; assay type: in vivo, Setaria viridis; settings: preemergence, 0 to 100 scale (0 no effect, 100 complete control)
Outline: as §1

kochia [5] = assay: Test C preemergence; assay type: in vivo, Bassia scoparia; settings: preemergence, 0 to 100 scale (0 no effect, 100 complete control)
Outline: as §1

oat, wild [6] = assay: Test C preemergence; assay type: in vivo, Avena fatua; settings: preemergence, 0 to 100 scale (0 no effect, 100 complete control)
Outline: as §1

pigweed, palmer [7] = assay: Test C preemergence; assay type: in vivo, Amaranthus palmeri; settings: preemergence, 0 to 100 scale (0 no effect, 100 complete control)
Outline: as §1

ryegrass, Italian [8] = assay: Test C preemergence; assay type: in vivo, Lolium multiflorum; settings: preemergence, 0 to 100 scale (0 no effect, 100 complete control)
Outline: as §1

soybean [9] = assay: Test C preemergence; assay type: in vivo, Glycine max; settings: preemergence, 0 to 100 scale (0 no effect, 100 complete control)
Outline: as §1

wheat [10] = assay: Test C preemergence; assay type: in vivo, Triticum aestivum; settings: preemergence, 0 to 100 scale (0 no effect, 100 complete control)
Outline: as §1

barnyardgrass [11] = assay: Test C postemergence; assay type: in vivo, Echinochloa crusgalli; settings: 10 days, 0 to 100 scale (0 no effect, 100 complete control)
Outline: as §1

blackgrass [12] = assay: Test C postemergence; assay type: in vivo, Alopecurus myosuroides; settings: 10 days, 0 to 100 scale (0 no effect, 100 complete control)
Outline: as §1

corn [13] = assay: Test C postemergence; assay type: in vivo, Zea mays; settings: 10 days, 0 to 100 scale (0 no effect, 100 complete control)
Outline: as §1

green foxtail [14] = assay: Test C postemergence; assay type: in vivo, Setaria viridis; settings: 10 days, 0 to 100 scale (0 no effect, 100 complete control)
Outline: as §1

kochia [15] = assay: Test C postemergence; assay type: in vivo, Bassia scoparia; settings: 10 days, 0 to 100 scale (0 no effect, 100 complete control)
Outline: as §1

oat, wild [16] = assay: Test C postemergence; assay type: in vivo, Avena fatua; settings: 10 days, 0 to 100 scale (0 no effect, 100 complete control)
Outline: as §1

pigweed, palmer [17] = assay: Test C postemergence; assay type: in vivo, Amaranthus palmeri; settings: 10 days, 0 to 100 scale (0 no effect, 100 complete control)
Outline: as §1

ragweed = assay: Test C postemergence; assay type: in vivo, Ambrosia artemisiifolia; settings: 10 days, 0 to 100 scale (0 no effect, 100 complete control)
Outline: as §1

ryegrass, Italian [18] = assay: Test C postemergence; assay type: in vivo, Lolium multiflorum; settings: 10 days, 0 to 100 scale (0 no effect, 100 complete control)
Outline: as §1

soybean [19] = assay: Test C postemergence; assay type: in vivo, Glycine max; settings: 10 days, 0 to 100 scale (0 no effect, 100 complete control)
Outline: as §1

wheat [20] = assay: Test C postemergence; assay type: in vivo, Triticum aestivum; settings: 10 days, 0 to 100 scale (0 no effect, 100 complete control)
Outline: as §1

galium = assay: Test C postemergence; assay type: in vivo, Galium aparine; settings: 500 g ai/ha, postemergence, 10 days, 0 to 100 scale (0 no effect, 100 complete control)
Outline: as §1

horseweed = assay: Test C postemergence; assay type: in vivo, Erigeron canadensis; settings: 10 days, 0 to 100 scale (0 no effect, 100 complete control)
Outline: as §1

barnyardgrass [21] = assay: Test D flooded paddy test; assay type: in vivo, Echinochloa crus-galli; settings: 250 g ai/ha, applied to paddy water, visual rating after 13 to 14 days, scale 0 to 100 (0 no effect, 100 complete control)
Outline: (§2)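 Plants grown to the 2-leaf stage; pots flooded to 3 cm above soil at treatment and held at that depth throughout. Test compounds applied directly to the paddy water. After 13 to 14 days in a greenhouse, response was rated visually versus controls on a 0 (no effect) to 100 (complete control) scale.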

ducksalad = assay: Test D flooded paddy test; assay type: in vivo, Heteranthera limosa; settings: 250 g ai/ha, applied to paddy water, visual rating after 13 to 14 days, scale 0 to 100 (0 no effect, 100 complete control)
Outline: as §2

rice = assay: Test D flooded paddy test; assay type: in vivo, Oryza sativa; settings: 250 g ai/ha, applied to paddy water, visual rating after 13 to 14 days, scale 0 to 100 (0 no effect, 100 complete control)
Outline: as §2

sedge, umbrella = assay: Test D flooded paddy test; assay type: in vivo, Cyperus difformis; settings: 250 g ai/ha, applied to paddy water, visual rating after 13 to 14 days, scale 0 to 100 (0 no effect, 100 complete control)
Outline: as §2

With Cc1cccc2c1OC(C(F)(F)F)CN2C(=O)c1cccc(-n2cnc(C(C)C)n2)c1 (single isomer, unassigned) [Compound 302] the “Barnyardgrass plant response rating” value (barnyardgrass [1]; 500 g ai/ha) was 50, the “Barnyardgrass plant response rating” value (barnyardgrass [1]; Test C, 125 g ai/ha) was 0 and the “Blackgrass plant response rating” value (blackgrass [2]; 500 g ai/ha) was 60. For the same compound, the “Blackgrass plant response rating” value (blackgrass [2]; Test C, 125 g ai/ha) was 30, the “Corn plant response rating” value (corn [3]) was 0 and the “Foxtail, Green plant response rating” value (green foxtail [4]; 500 g ai/ha) was 80. For the same compound, the “Foxtail, Green plant response rating” value (green foxtail [4]; Test C, 125 g ai/ha) was 20, the “Kochia plant response rating” value (kochia [5]; 500 g ai/ha) was 80 and the “Kochia plant response rating” value (kochia [5]; Test C, 125 g ai/ha) was 0. For the same compound, the “Oat, Wild plant response rating” value (oat, wild [6]; 500 g ai/ha) was 80, the “Oat, Wild plant response rating” value (oat, wild [6]; Test C, 125 g ai/ha) was 0 and the “Pigweed, Palmer plant response rating” value (pigweed, palmer [7]; 500 g ai/ha) was 80. The “Pigweed, Palmer plant response rating” value (pigweed, palmer [7]; Test C, 125 g ai/ha) was 70, the “Ryegrass, Italian plant response rating” value (ryegrass, Italian [8]; 500 g ai/ha) was 100 and the “Ryegrass, Italian plant response rating” value (ryegrass, Italian [8]; Test C, 125 g ai/ha) was 80. For the same compound, the “Soybean plant response rating” value (soybean [9]; 500 g ai/ha) was 20, the “Soybean plant response rating” value (soybean [9]; Test C, 125 g ai/ha) was 10 and the “Wheat plant response rating” value (wheat [10]; 500 g ai/ha) was 40. For the same compound, the “Wheat plant response rating” value (wheat [10]; Test C, 125 g ai/ha) was 20, the “Plant response rating, Barnyardgrass” value (barnyardgrass [11]; 500 g ai/ha, postemergence) was 10 and the “Plant response rating, Barnyardgrass” value (barnyardgrass [11]; Postemergence, 125 g ai/ha) was 10. The “Plant response rating, Blackgrass” value (blackgrass [12]; 500 g ai/ha, postemergence) was 30, the “Plant response rating, Blackgrass” value (blackgrass [12]; Postemergence, 125 g ai/ha) was 0 and the “Plant response rating, Corn” value (corn [13]; 500 g ai/ha, postemergence) was 10. The “Plant response rating, Corn” value (corn [13]; Postemergence, 125 g ai/ha) was 10, the “Plant response rating, Foxtail, Green” value (green foxtail [14]; 500 g ai/ha, postemergence) was 10 and the “Plant response rating, Foxtail, Green” value (green foxtail [14]; Postemergence, 125 g ai/ha) was 0. For the same compound, the “Plant response rating, Kochia” value (kochia [15]; 500 g ai/ha, postemergence) was 70, the “Plant response rating, Kochia” value (kochia [15]; Postemergence, 125 g ai/ha) was 20 and the “Plant response rating, Oat, Wild” value (oat, wild [16]; 500 g ai/ha, postemergence) was 10. The “Plant response rating, Oat, Wild” value (oat, wild [16]; Postemergence, 125 g ai/ha) was 0, the “Plant response rating, Pigweed, Palmer” value (pigweed, palmer [17]; 500 g ai/ha, postemergence) was 20 and the “Plant response rating, Pigweed, Palmer” value (pigweed, palmer [17]; Postemergence, 125 g ai/ha) was 10. The “Plant response rating, Ragweed” value (ragweed; 500 g ai/ha, postemergence) was 20, the “Plant response rating, Ragweed” value (ragweed; Postemergence, 125 g ai/ha) was 20 and the “Plant response rating, Ryegrass, Italian” value (ryegrass, Italian [18]; 500 g ai/ha, postemergence) was 50. For the same compound, the “Plant response rating, Ryegrass, Italian” value (ryegrass, Italian [18]; Postemergence, 125 g ai/ha) was 0, the “Plant response rating, Soybean” value (soybean [19]; 500 g ai/ha, postemergence) was 90 and the “Plant response rating, Soybean” value (soybean [19]; Postemergence, 125 g ai/ha) was 80. For the same compound, the “Plant response rating, Wheat” value (wheat [20]; 500 g ai/ha, postemergence) was 10, the “Plant response rating, Wheat” value (wheat [20]; Postemergence, 125 g ai/ha) was 10 and the “Plant response rating, Galium” value (galium) was 90. For the same compound, the “Plant response rating, Horseweed” value (horseweed; 500 g ai/ha, postemergence) was 50, the “Plant response rating, Horseweed” value (horseweed; Postemergence, 125 g ai/ha) was 60 and the “Plant response rating, Barnyardgrass (Flood)” value (barnyardgrass [21]) was 0. For the same compound, the “Plant response rating, Ducksalad (Flood)” value (ducksalad) was 0, the “Plant response rating, Rice (Flood)” value (rice) was 0 and the “Plant response rating, Sedge, Umbrella (Flood)” value (sedge, umbrella) was 0.
